Reference: patent US10316017B2, “COT modulators and methods of use thereof” (Gilead Sciences, Inc., priority 2015, dated 2019)

Key:
[1] = test system: TNFα production in LPS-stimulated human monocytes; test: Cot Monocyte TNFα Cell Based Assay; conditions: Homo sapiens, Monocyte, TNFα in LPS-stimulated human monocytes; read-out: EC50 TNF
Outline: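 Percent-of-control values derive from TR-FRET ratios of TNFα in spun-down media, referenced to unstimulated and LPS-stimulated wells. Exposure: 1 h compound preincubation, then 50 pg/ml LPS for 4 h, both at 37 °C, with 0.5% final DMSO.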

[2] = target: T1, human Cot catalytic domain (30-397 amino acids) (Homo sapiens, UniProt P41279); test: High Throughput Cot Biochemical Assay (KinEASE TR-FRET); conditions: Cot KinEASE TR-FRET (HTRF) biochemical assay, 400 μM ATP; read-out: IC50 HTRF
T1 construct: Purified recombinant human Cot catalytic domain (30-397 amino acids) was purchased from Cama Biosciences; purchased Cama Biosciences (so in the source)
Outline: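 Phosphorylation of 1 μM XL665-STK3 peptide by 5 nM Cot catalytic domain was measured by time-resolved FRET using a europium […] antibody. ATP was 400 μM; buffer was 10 mM MOPS pH 7.0 with Mg2+ and DTT.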

T1 sequence (P41279 30-397): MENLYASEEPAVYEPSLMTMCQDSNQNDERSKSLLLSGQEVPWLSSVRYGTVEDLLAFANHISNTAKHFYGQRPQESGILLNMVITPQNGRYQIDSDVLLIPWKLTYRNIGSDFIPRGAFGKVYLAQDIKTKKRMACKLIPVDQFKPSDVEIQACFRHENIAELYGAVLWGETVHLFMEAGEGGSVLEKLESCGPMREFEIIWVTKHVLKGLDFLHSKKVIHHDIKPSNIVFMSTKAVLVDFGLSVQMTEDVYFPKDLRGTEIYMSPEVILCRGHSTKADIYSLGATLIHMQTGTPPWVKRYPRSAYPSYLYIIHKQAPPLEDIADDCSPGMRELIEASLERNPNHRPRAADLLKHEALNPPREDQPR

| SMILES | EC50 [1] | IC50 [2] |
| --- | --- | --- |
| CC[C@@H](Nc1c(C#N)cnc2c(Cl)cc(N[C@@H](c3ccc(F)cc3)c3cn(C(C)C)nn3)cc12)c1ccc(C)cc1 [Example 365, 8-chloro-6-(((S)-(4-fluorophenyl)(1-isopropyl-1H-1,2,3-triazol-4-yl)methyl)amino)-4-(((R)-1-(p-tolyl)propyl)amino)quinoline-3-carbonitrile] | 9330 nM | 868 nM |
| CC[C@@H](Nc1c(C#N)cnc2c(Cl)cc(N[C@@H](c3ccc(F)cc3)c3cn(C(C)C)nn3)cc12)c1ccccc1C [Example 366, 8-chloro-6-(((S)-(4-fluorophenyl)(1-isopropyl-1H-1,2,3-triazol-4-yl)methyl)amino)-4-(((R)-1-(o-tolyl)propyl)amino)quinoline-3-carbonitrile] | 1300 nM | 110 nM |
| N#Cc1cnc2c(Cl)cc(N[C@@H](c3ccc(F)cc3)c3c[nH]nn3)cc2c1Nc1ccc(F)cc1F [Example 367, (S)-8-chloro-4-((2,4-difluorophenyl)amino)-6-(((4-fluorophenyl)(1H-1,2,3-triazol-4-yl)methyl)amino)quinoline-3-carbonitrile] | 3850 nM | 297 nM |
| N#Cc1cnc2c(Cl)cc(N[C@@H](c3ccc(F)cc3)c3c[nH]nn3)cc2c1Nc1ccc(F)c(F)c1 [Example 368, (S)-8-chloro-4-((3,4-difluorophenyl)amino)-6-(((4-fluorophenyl)(1H-1,2,3-triazol-4-yl)methyl)amino)quinoline-3-carbonitrile] | 1130 nM | 50 nM |
| [2H][C@](Nc1cc(Cl)c2ncc(C#N)c(Nc3cnc(F)c(F)c3)c2c1)(c1cccc(C#N)c1)c1cn(C2CC2)nn1 [Example 369, (S)-8-chloro-6-(((3-cyanophenyl)(1-cyclopropyl-1H-1,2,3-triazol-4-yl)methyl-d)amino)-4-((5,6-difluoropyridin-3-yl)amino)quinoline-3-carbonitrile] | 93 nM | 4 nM |
| [2H][C@](Nc1cc(Cl)c2ncc(C#N)c(Nc3cnc(F)c(F)c3)c2c1)(c1cccc(C#N)c1)c1c[nH]nn1 [Example 370, (S)-8-chloro-6-(((3-cyanophenyl)(1H-1,2,3-triazol-4-yl)methyl-d)amino)-4-((5,6-difluoropyridin-3-yl)amino)quinoline-3-carbonitrile] | 417 nM | 5 nM |
| [2H][C@](Nc1cc(Cl)c2ncc(C#N)c(Nc3cnc(F)c(F)c3)c2c1)(c1ccc(F)cc1)c1cn(C2(C(F)(F)F)CC2)nn1 [Example 371, (S)-8-chloro-4-((5,6-difluoropyridin-3-yl)amino)-6-(((4-fluorophenyl)(1-(1-(trifluoromethyl)cyclopropyl)-1H-1,2,3-triazol-4-yl)methyl-d)amino)quinoline-3-carbonitrile] | 877 nM | 154 nM |
| N#Cc1cc([C@H](Nc2cc(Cl)c3ncc(C#N)c(Nc4cnc(F)c(F)c4)c3c2)c2c[nH]nn2)ccc1F [Example 372, (S)-8-chloro-6-(((3-cyano-4-fluorophenyl)(1H-1,2,3-triazol-4-yl)methyl)amino)-4-((5,6-difluoropyridin-3-yl)amino)quinoline-3-carbonitrile] | 771 nM | 11 nM |
| N#Cc1cnc2c(Cl)cc(N[C@@H](c3ccc(F)cc3)c3c[nH]nn3)cc2c1Nc1cccnc1F [Example 373, (S)-8-chloro-6-(((4-fluorophenyl)(1H-1,2,3-triazol-4-yl)methyl)amino)-4-((2-fluoropyridin-3-yl)amino)quinoline-3-carbonitrile] | 7520 nM | 3010 nM |
| N#Cc1cnc2c(Cl)cc(N[C@@H](c3ccc(F)cc3)c3c[nH]nn3)cc2c1Nc1ccc(F)nc1 [Example 374, (S)-8-chloro-6-(((4-fluorophenyl)(1H-1,2,3-triazol-4-yl)methyl)amino)-4-((6-fluoropyridin-3-yl)amino)quinoline-3-carbonitrile] | 3840 nM | 161 nM |
| Cc1cc(Nc2c(C#N)cnc3c(Cl)cc(N[C@@H](c4ccc(F)cc4)c4c[nH]nn4)cc23)cnc1F [Example 375, (S)-8-chloro-4-((6-fluoro-5-methylpyridin-3-yl)amino)-6-(((4-fluorophenyl)(1H-1,2,3-triazol-4-yl)methyl)amino) quinoline-3-carbonitrile] | 1260 nM | 48 nM |
| N#Cc1cnc2c(Cl)cc(N[C@H](c3c[nH]nn3)c3ccccc3Cl)cc2c1Nc1cnc(F)c(F)c1 [Example 376, (S)-8-chloro-6-(((2-chlorophenyl)(1H-1,2,3-triazol-4-yl)methyl)amino)-4-((5,6-difluoropyridin-3-yl)amino)quinoline-3-carbonitrile] | 1610 nM | 47 nM |
| N#Cc1cnc2c(Cl)cc(N[C@@H](c3ccc(F)cc3)c3cn(C(F)F)nn3)cc2c1Nc1cnc(F)c(F)c1 [Example 377, (S)-8-chloro-6-(((1-(difluoromethyl)-1H-1,2,3-triazol-4-yl)(4-fluorophenyl)methyl)amino)-4-((5,6-difluoropyridin-3-yl)amino)quinoline-3-carbonitrile] | > 10000 nM | 495 nM |
| N#Cc1cnc2c(Cl)cc(N[C@@H](c3ccc(F)cc3)c3cnn(C(F)F)n3)cc2c1Nc1cnc(F)c(F)c1 [Example 378, (S)-8-chloro-6-(((2-(difluoromethyl)-2H-1,2,3-triazol-4-yl)(4-fluorophenyl)methyl)amino)-4-((5,6-difluoropyridin-3-yl)amino)quinoline-3-carbonitrile] | > 10000 nM | > 10000 nM |
| CC[C@@H](Nc1c(C#N)cnc2c(Cl)cc(N[C@@H](c3ccc(F)cc3)c3cn(C4(C(F)(F)F)CC4)nn3)cc12)c1ccccc1 [Example 379, 8-chloro-6-(((S)-(4-fluorophenyl)(1-(1-(trifluoromethyl)cyclopropyl)-1H-1,2,3-triazo1-4-yl)methyl)amino)-4-(((R)-1-phenylpropyl)amino)quinoline-3-carbonitrile] | 191 nM | 30 nM |
| N#Cc1cnc2c(Cl)cc(N[C@@H](c3ccc(F)cc3)c3cn(C4CCOCC4)nn3)cc2c1Nc1cnc(F)c(F)c1 [Example 380, (S)-8-chloro-4-((5,6-difluoropyridin-3-yl)amino)-6-(((4-fluorophenyl) (1-(tetrahydro-2H-pyran-4-yl)-1H-1,2,3-triazol-4-yl)methyl)amino)quinoline-3-carbonitrile] | 1280 nM | 78 nM |
| [2H][C@](Nc1cc(Cl)c2ncc(C#N)c(Nc3cnc(F)c(F)c3)c2c1)(c1ccc(F)cc1)c1cn(C(C)(C)C)nn1 [Example 381, (S)-6-(((1-(tert-butyl)-1H-1,2,3-triazol-4-yl)(4-fluorophenyl)methyl-d)amino)-8-chloro-4-((5,6-difluoropyridin-3-yl)amino)quinoline-3-carbonitrile] | 644 nM | 44 nM |
| [2H][C@](Nc1cc(Cl)c2ncc(C#N)c(Nc3cnc(F)c(F)c3)c2c1)(c1ccc(F)cc1)c1cn(C2CC2)nn1 [Example 382, (S)-8-chloro-6-(((1-cyclopropyl-1H-1,2,3-triazol-4-yl)(4-fluorophenyl)methyl-d)amino)-4-((5,6-difluoropyridin-3-yl)amino)quinoline-3-carbonitrile] | 323 nM | 8 nM |
| CC(C)n1cc([C@@H](Nc2cc(Cl)c3ncc(C#N)c(Nc4ccc(F)c(Cl)c4)c3c2)c2cccc(S(=O)(=O)N(C)C)c2)nn1 [Example 383, (S)-3-(((8-chloro-4-((3-chloro-4-fluorophenyl)amino)-3-cyanoquinolin-6-yl)amino)(1-isopropyl-1H-1,2,3-triazol-4-yl)methyl)-N,N-dimethylbenzenesulfonamide] | 148 nM | 11 nM |
| N#Cc1cnc2c(Cl)cc(N[C@@H](c3ccc(F)cc3)c3cn(CC4(O)CC4)nn3)cc2c1Nc1cnc(F)c(F)c1 [Example 384, (S)-8-chloro-4-((5,6-difluoropyridin-3-yl)amino)-6-(((4-fluorophenyl)(1-((1-hydroxycyclopropyl)methyl)-1H-1,2,3-triazol-4-yl)methyl)amino)quinoline-3-carbonitrile] | 832 nM | 8 nM |
| CC(C)n1cc([C@@H](Nc2cc(Cl)c3ncc(C#N)c(Nc4cnc(F)c(F)c4)c3c2)c2cccc(-c3nccn3C)c2)nn1 [Example 385, (S)-8-chloro-4-((5,6-difluoropyridin-3-yl)amino)-6-(((1-isopropyl-1H-1,2,3-triazol-4-yl)(3-(1-methyl-1H-imidazol-2-yl)phenyl)methyl)amino) quinoline-3-carbonitrile] | 692 nM | 4 nM |
| Cn1ccnc1-c1cccc([C@H](Nc2cc(Cl)c3ncc(C#N)c(Nc4cnc(F)c(F)c4)c3c2)c2c[nH]nn2)c1 [Example 386, (S)-8-chloro-4-((5,6-difluoropyridin-3-yl)amino)-6-(((3-(1-methyl-1H-imidazol-2-yl)phenyl)(1H-1,2,3-triazol-4-yl)methyl)amino)quinoline-3-carbonitrile] | 1440 nM | 5 nM |
| [2H][C@](Nc1cc(Cl)c2ncc(C#N)c(Nc3cnc(F)c(F)c3)c2c1)(c1ccc(Cl)cc1)c1c[nH]nn1 [Example 387, (S)-8-chloro-6-(((4-chlorophenyl)(1H-1,2,3-triazol-4-yl)methyl-d)amino)-4-((5,6-difluoropyridin-3-yl)amino)quinoline-3-carbonitrile] | 809 nM | 50 nM |
